Consider six compounds from patent US8841482B2, “Method for synthesizing rare earth metal extractant” (Shin-Etsu Chemical Co., Ltd., priority 2010, dated 2014).

The structures appear in SMILES notation.

The data set can be described thus: extraction/separation performance test (solvent extraction of Pr/Nd, back extraction, ICP atomic emission). The class given is physicochemical. The settings on record: aqueous Pr:Nd 1:1, 0.1 mol/L Pr+Nd, 20° C.

Description: The stoichiometric amount of the reaction product, D2EHDGAA in Example 1 or Comparative Example 1 was diluted with hexanol to form an organic solution having a D2EHDGAA concentration of 0.3 mol/L, which might become an organic phase.
A mixed rare earth metal aqueous solution was prepared by dissolving praseodymium chloride and neodymium chloride in water in a molar ratio Pr:Nd of 1:1 and a concentration of 0.1 mol/L of Pr+Nd to form an aqueous solution, which might become an aqueous phase. A separatory funnel was charged with 100 mL of the organic solution and 100 mL of the aqueous solution and shaken at 20° C. for about 20 minutes to effect extraction. After equilibrium was reached, the liquid was allowed to separate into organic and aqueous phases. A separatory funnel was charged with 100 mL of the thus separated organic phase and 100 mL of 5N hydrochloric acid and shaken at 20° C. for about 20 minutes whereby the rare earth element once extracted in the organic phase was back extracted in the hydrochloric acid aqueous solution. The concentrations of praseodymium and neodymium in the aqueous phase and the back-extracted hydrochloric acid aqueous solution were measured by an ICP atomic emission spectrometer ICP-7500 (Shimadzu Corp.).
The stoichiometric amount of the reaction product, D2EHDGAA in Example 5, 6 or Comparative Example 5, 6 was diluted with toluene to form an organic solution having a D2EHDGAA concentration of 0.3 mol/L, which might become an organic phase.

As to `CCCCC(CC)CN(CC(CC)CCCC)C(=O)COCC(=O)O` (stereo not drawn) [Example 3, N,N-bis(2-ethylhexyl)-3-oxapentane-1,5-amic acid], where the note is “D2EHDGAA 0.3 mol/L in kerosene”, the Nd/Pr separation factor was determined as 2.5 and the Phase separation entry is on record as “definite”.

For `CCCCC(CC)CN(CC(CC)CCCC)C(=O)COCC(=O)O` (stereo not drawn) [Example 4, N,N-bis(2-ethylhexyl)-3-oxapentane-1,5-amic acid], under “D2EHDGAA 0.3 mol/L in kerosene”, the Nd/Pr separation factor amounted to 2.5 and the Phase separation entry is listed as “definite”.

Consider `CCCCCCCCN(CCCCCCCC)C(=O)COCC(=O)O` [Example 2, N,N-dioctyl-3-oxapentane-1,5-amic acid], for which, where the note is “DODGAA 0.3 mol/L in hexanol”, the Nd/Pr separation factor is 2.5 and the Phase separation result is “definite”.

With `CCCCC(CC)CN(CC(CC)CCCC)C(=O)COCC(=O)O` (stereo not drawn) [Example 1, N,N-bis(2-ethylhexyl)-3-oxapentane-1,5-amic acid], where the note is “D2EHDGAA 0.3 mol/L in hexanol”, the Nd/Pr separation factor is 2.5 and the Phase separation entry is reported as “definite”.

For the compound `CCCCC(CC)CN(CC(CC)CCCC)C(=O)COCC(=O)O` (stereo not drawn) [Example 6, N,N-bis(2-ethylhexyl)-3-oxapentane-1,5-amic acid], under “D2EHDGAA 0.3 mol/L in toluene”, the Nd/Pr separation factor is 2.5 and the Phase separation result is given as “definite”.

In the case of `CCCCC(CC)CN(CC(CC)CCCC)C(=O)COCC(=O)O` (stereo not drawn) [Example 5, N,N-bis(2-ethylhexyl)-3-oxapentane-1,5-amic acid], under “D2EHDGAA 0.3 mol/L in toluene”, the Nd/Pr separation factor was found to be 2.5 and the Phase separation entry is “definite”.
